In ChEMBL document CHEMBL1129199, “Trifluoromethyl alcohol and ketone inhibitors of metallo--lactamases” (Bioorg Med Chem Lett, 1996):

Tests used:
[1] = Compound was evaluated for inhibition of metallo beta lactamase from Aeromonas hydrophilia AE036.; design: species or system Aeromonas hydrophila
[2] = system: Aeromonas hydrophila; assay: Compound was evaluated for kinetic data for the inhibition of metallo beta lactamase from Aeromonas hydrophilia AE036.
[3] = Compound was evaluated for inhibition of metallo beta lactamase from bacillus cereus 569H
[4] = Compound was evaluated for inhibition of metallo beta lactamase from Pseudomonas aeruginosa 101
[5] = Compound was evaluated for inhibition of metallo beta lactamase from xanthomonas maltophilia ULA-511; design: species or system Stenotrophomonas maltophilia
[6] = Ratio of K+2/K of the compound

Row | SMILES | Ki [1] [µM] | k+2 [2] [s⁻¹] | Ki [3] [µM] | Ki [4] [µM] | Ki [5] [µM] | k+2/k [6] [M⁻¹ s⁻¹]
1 | C[C@@H](NC(=O)COc1ccccc1)C(=O)C(F)(F)F | 11 | 1 | 700 | 500 | 3 | 9.1
2 | C[C@H](NC(=O)COc1ccccc1)C(=O)C(F)(F)F | 44 | 4 | 300 | 300 | 1.5 | 9.1
3 | O=C(COc1ccccc1)N[C@@H](Cc1ccccc1)[C@@H](O)C(F)(F)F | 19 | 4.3 | 1000 | 900 | > 5000 | 2.3
4 | C[C@H](NC(=O)COc1ccccc1)[C@@H](O)C(F)(F)F | – | – | 3000 | 400 | > 5000 | –

The remaining molecules from weak to strong by Ki [3], led by results:

Row | Ki [1] [µM] | k+2 [2] [s⁻¹] | Ki [3] [µM] | Ki [4] [µM] | Ki [5] [µM] | k+2/k [6] [M⁻¹ s⁻¹] | SMILES
5 | – | – | 1000 | – | – | – | O=C(COc1ccccc1)N[C@H](Cc1ccccc1)C(=O)C(F)(F)F
6 | 217 | 1.1 | 700 | 400 | 35 | 5.25 | C[C@@H](NC(=O)COc1ccccc1)[C@@H](O)C(F)(F)F
7 | 6 | 4.3 | 500 | 530 | 15 | 7.2 | O=C(COc1ccccc1)N[C@@H](Cc1ccccc1)C(=O)C(F)(F)F
8 | 20 | 3.9 | 30 | 60 | > 5000 | 1.9 | O=C(COc1ccccc1)N[C@H](Cc1ccccc1)[C@@H](O)C(F)(F)F
